Assay results reported in ChEMBL document CHEMBL1123387 (J Med Chem, 1986).
pKi: −log10 of the molar value. Square brackets hold non-standard residues; d marks the D form. Peptide text beside a SMILES is read from it. * marks the point of attachment. Sta = CC(C)C[C@H](N)[C@@H](O)CC(=O)O; Isovaleryl = CC(C)CC(=O)*; NHIsopentyl = CC(C)CCN*; Boc = CC(C)(C)OC(=O)*

Target: Pepsin A (Sus scrofa, UniProt P00791)
Assay: Compound was tested for inhibition of pepsin.

Chain of Pepsin A (P00791 whole entry): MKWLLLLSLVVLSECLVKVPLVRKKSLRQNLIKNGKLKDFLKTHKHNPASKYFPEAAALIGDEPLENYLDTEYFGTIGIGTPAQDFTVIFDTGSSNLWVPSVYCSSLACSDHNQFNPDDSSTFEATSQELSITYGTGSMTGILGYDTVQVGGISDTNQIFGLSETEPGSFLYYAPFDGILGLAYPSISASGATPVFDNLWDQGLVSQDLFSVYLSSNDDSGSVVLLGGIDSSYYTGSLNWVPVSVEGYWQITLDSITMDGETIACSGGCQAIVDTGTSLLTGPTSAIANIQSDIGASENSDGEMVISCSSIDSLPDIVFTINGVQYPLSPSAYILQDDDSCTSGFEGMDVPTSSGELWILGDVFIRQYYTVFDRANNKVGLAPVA

Compound | pKi
CC(C)CCNC(=O)[C@H](C)NC(=O)C[C@H](O)[C@H](CC(C)C)NC(=O)[C@H](C)NC(=O)[C@H](C)NC(=O)[C@H](Cc1ccccc1)NC(=O)OC(C)(C)C (Boc-FAA[Sta]A-NHIsopentyl) | 8.48
COC(=O)[C@H](CC(C)C)NC(=O)[C@@H](NC(=O)[C@H](Cc1ccccc1)NC(=O)C[C@H](O)[C@H](CC(C)C)NC(=O)[C@H](C)NC(=O)[C@H](C)NC(=O)[C@H](Cc1ccccc1)NC(=O)OC(C)(C)C)C(C)C (Boc-FAA[Sta]FVL-OMe) | 8.77
COC(=O)[C@H](CC(C)C)NC(=O)[C@@H](NC(=O)C[C@H](O)[C@H](CC(C)C)NC(=O)[C@H](C)NC(=O)[C@H](C)NC(=O)[C@H](Cc1ccccc1)NC(=O)OC(C)(C)C)C(C)C (Boc-FAA[Sta]VL-OMe) | 8.55
COC(=O)[C@H](CC(C)C)NC(=O)[C@@H](NC(=O)[C@H](Cc1ccccc1)NC(=O)C[C@H](O)[C@H](CC(C)C)NC(=O)[C@H](C)NC(=O)[C@H](Cc1ccccc1)NC(=O)[C@H](Cc1ccccc1)NC(=O)OC(C)(C)C)C(C)C (Boc-FFA[Sta]FVL-OMe) | 7.62
COC(=O)[C@H](CC(C)C)NC(=O)[C@@H](NC(=O)[C@H](Cc1ccccc1)NC(=O)C[C@H](O)[C@H](CC(C)C)NC(=O)[C@H](C)NC(=O)[C@H](CC(C)C)NC(=O)[C@H](Cc1ccccc1)NC(=O)OC(C)(C)C)C(C)C (Boc-FLA[Sta]FVL-OMe) | 9.19

Target: T1, Cathepsin D (Bos taurus, UniProt P80209)
T1 sequence (P80209 whole entry): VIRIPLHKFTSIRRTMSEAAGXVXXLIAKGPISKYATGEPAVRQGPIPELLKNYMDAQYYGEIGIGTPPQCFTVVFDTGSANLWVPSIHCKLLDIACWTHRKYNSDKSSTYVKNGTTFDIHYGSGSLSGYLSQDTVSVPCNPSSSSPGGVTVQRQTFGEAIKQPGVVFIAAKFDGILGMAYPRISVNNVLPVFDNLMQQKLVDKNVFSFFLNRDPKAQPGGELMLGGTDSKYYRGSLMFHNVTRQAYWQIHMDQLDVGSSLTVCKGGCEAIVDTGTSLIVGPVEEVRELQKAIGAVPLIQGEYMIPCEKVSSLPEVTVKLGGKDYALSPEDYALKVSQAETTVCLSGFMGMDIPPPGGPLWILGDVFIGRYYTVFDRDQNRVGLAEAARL
Assay: Inhibition of cathepsin D.

Compound | pKi
CC(C)CCNC(=O)[C@H](C)NC(=O)C[C@H](O)[C@H](CC(C)C)NC(=O)[C@@H](NC(=O)[C@@H](NC(=O)CC(C)C)C(C)C)C(C)C | 8.43
CC(C)CCNC(=O)[C@H](C)NC(=O)C[C@H](O)[C@H](CC(C)C)NC(=O)[C@@H](NC(=O)[C@@H](NC(=O)OC(C)(C)C)C(C)C)C(C)C | 8.96
CCC(CC)C(=O)N[C@H](C(=O)N[C@@H](CC(C)C)[C@@H](O)CC(=O)N[C@@H](C)C(=O)NCCC(C)C)C(C)C | 6.92
CC(C)CCNC(=O)[C@H](C)NC(=O)C[C@H](O)[C@H](CC(C)C)NC(=O)[C@@H](NC(=O)C(C)C)C(C)C | 6.23
CC(C)CCNC(=O)[C@H](C)NC(=O)C[C@H](O)[C@H](CC(C)C)NC(=O)[C@@H](NC(=O)OC(C)C)C(C)C | 6.21
CC(C)CCNC(=O)[C@H](C)NC(=O)C[C@H](O)[C@H](CC(C)C)NC(=O)[C@@H](NC(=O)OC(C)(C)C)C(C)C | 5.57
CCC(C)C(=O)N[C@H](C(=O)N[C@@H](CC(C)C)[C@@H](O)CC(=O)N[C@@H](C)C(=O)NCCC(C)C)C(C)C (stereo partly specified) | 6.64
CC(C)CCNC(=O)[C@H](C)NC(=O)C[C@H](O)[C@H](CC(C)C)NC(=O)[C@@H](NC(=O)CC(C)C)C(C)C | 6.66
CC(C)CCNC(=O)[C@H](C)NC(=O)C[C@H](O)[C@@H](Cc1ccccc1)NC(=O)[C@H](NC(=O)CC(C)C)C(C)C | 7.28
CC(C)CCNC(=O)[C@H](C)NC(=O)C[C@H](O)[C@H](Cc1ccccc1)NC(=O)[C@H](NC(=O)CC(C)C)C(C)C | 5.97
CC(C)CCNC(=O)[C@H](C)NC(=O)C[C@H](O)[C@@H](Cc1ccccc1)NC(=O)[C@@H](NC(=O)OC(C)(C)C)C(C)C | 5.31
CC(C)CCNC(=O)[C@H](C)NC(=O)C[C@@H](O)[C@@H](CC(C)C)NC(=O)[C@@H](NC(=O)[C@@H](NC(=O)OC(C)(C)C)C(C)C)C(C)C | 6.35
CC(C)CCNC(=O)[C@H](C)NC(=O)C[C@H](O)[C@@H](CC(C)C)NC(=O)[C@@H](NC(=O)[C@@H](NC(=O)CC(C)C)C(C)C)C(C)C | < 7.00
CC(C)CCNC(=O)[C@H](C)NC(=O)C[C@H](O)[C@H](Cc1ccccc1)NC(=O)[C@@H](NC(=O)OC(C)(C)C)C(C)C | 6.43
CC(C)CCNC(=O)[C@H](C)NC(=O)C[C@@H](O)[C@@H](CC(C)C)NC(=O)[C@@H](NC(=O)CC(C)C)C(C)C | 5.85
CC(C)CCNC(=O)[C@H](C)NC(=O)C[C@H](C)[C@@H](CC(C)C)NC(=O)[C@@H](NC(=O)[C@@H](NC(=O)CC(C)C)C(C)C)C(C)C | 6.67
CC(C)CCNC(=O)[C@H](C)NC(=O)C[C@H](C)[C@H](CC(C)C)NC(=O)[C@@H](NC(=O)[C@@H](NC(=O)CC(C)C)C(C)C)C(C)C | 6.40
CC(C)CCNC(=O)[C@H](C)NC(=O)C[C@H](O)[C@@H](CC(C)C)NC(=O)[C@@H](NC(=O)CC(C)C)C(C)C | 5.68

Compound | pKi
CC(C)CCNC(=O)[C@H](C)NC(=O)C[C@H](C)[C@H](Cc1ccccc1)NC(=O)[C@@H](NC(=O)OC(C)(C)C)C(C)C | 6.03
CC(C)CCNC(=O)[C@H](C)NC(=O)C[C@H](O)[C@@H](Cc1ccccc1)NC(=O)[C@@H](NC(=O)[C@@H](NC(=O)OC(C)(C)C)C(C)C)C(C)C | 7.02
CC(C)CCNC(=O)[C@H](C)NC(=O)C[C@H](O)[C@H](Cc1ccccc1)NC(=O)[C@@H](NC(=O)[C@@H](NC(=O)OC(C)(C)C)C(C)C)C(C)C | 8.68
CC(C)CCNC(=O)[C@H](C)NC(=O)C[C@H](O)[C@@H](Cc1ccccc1)NC(=O)[C@@H](NC(=O)[C@@H](NC(=O)CC(C)C)C(C)C)C(C)C | 7.00
CC(C)CCNC(=O)[C@H](C)NC(=O)C[C@H](O)[C@H](Cc1ccccc1)NC(=O)[C@@H](NC(=O)[C@@H](NC(=O)CC(C)C)C(C)C)C(C)C | 9.00
CC(C)CCNC(=O)[C@H](C)NC(=O)CC(=O)[C@H](CC(C)C)NC(=O)[C@@H](NC(=O)[C@@H](NC(=O)CC(C)C)C(C)C)C(C)C | 7.60
CC(C)CCNC(=O)[C@H](C)NC(=O)C[C@H](O)[C@H](CC(C)C)NC(=O)[C@@H](NC(=O)C(C)(C)C)C(C)C | 6.96
COC(=O)[C@H](C)NC(=O)C[C@H](O)[C@H](CC(C)C)NC(=O)[C@@H](NC(=O)CC(C)C)C(C)C | 5.74
CC(C)CCNC(=O)[C@H](C)NC(=O)C(C(=O)[C@H](CC(C)C)NC(=O)[C@@H](NC(=O)[C@@H](NC(=O)CC(C)C)C(C)C)C(C)C)[S+](C)C (stereo partly specified) | 6.97
CC(C)CCNC(=O)[C@H](C)NC(=O)C[C@H](O)[C@H](CC(C)C)NC(=O)[C@H](C)NC(=O)[C@H](C)NC(=O)[C@H](Cc1ccccc1)NC(=O)OC(C)(C)C (Boc-FAA[Sta]A-NHIsopentyl) | 7.00
COC(=O)[C@H](CC(C)C)NC(=O)[C@@H](NC(=O)[C@H](Cc1ccccc1)NC(=O)C[C@H](O)[C@H](CC(C)C)NC(=O)[C@H](C)NC(=O)[C@H](C)NC(=O)[C@H](Cc1ccccc1)NC(=O)OC(C)(C)C)C(C)C (Boc-FAA[Sta]FVL-OMe) | 7.22
COC(=O)[C@H](CC(C)C)NC(=O)[C@@H](NC(=O)C[C@H](O)[C@H](CC(C)C)NC(=O)[C@H](C)NC(=O)[C@H](C)NC(=O)[C@H](Cc1ccccc1)NC(=O)OC(C)(C)C)C(C)C (Boc-FAA[Sta]VL-OMe) | 7.92
COC(=O)[C@H](CC(C)C)NC(=O)[C@@H](NC(=O)[C@H](Cc1ccccc1)NC(=O)C[C@H](O)[C@H](CC(C)C)NC(=O)[C@H](C)NC(=O)[C@H](Cc1ccccc1)NC(=O)[C@H](Cc1ccccc1)NC(=O)OC(C)(C)C)C(C)C (Boc-FFA[Sta]FVL-OMe) | 7.92
COC(=O)[C@H](CC(C)C)NC(=O)[C@@H](NC(=O)[C@H](Cc1ccccc1)NC(=O)C[C@H](O)[C@H](CC(C)C)NC(=O)[C@H](C)NC(=O)[C@H](CC(C)C)NC(=O)[C@H](Cc1ccccc1)NC(=O)OC(C)(C)C)C(C)C (Boc-FLA[Sta]FVL-OMe) | 8.24
COC(=O)[C@H](C)NC(=O)C[C@H](O)[C@H](CC(C)C)NC(=O)[C@@H](NC(=O)[C@@H](NC(=O)CC(C)C)C(C)C)C(C)C (Isovaleryl-VV[Sta]A-OMe) | 7.05
COC(=O)[C@H](Cc1ccccc1)NC(=O)[C@H](C)NC(=O)C[C@H](O)[C@H](CC(C)C)NC(=O)[C@@H](NC(=O)CC(C)C)C(C)C (Isovaleryl-V[Sta]AF-OMe) | 7.64
COC(=O)[C@H](CC(C)C)NC(=O)[C@H](C)NC(=O)C[C@H](O)[C@H](CC(C)C)NC(=O)[C@@H](NC(=O)CC(C)C)C(C)C (Isovaleryl-V[Sta]AL-OMe) | 7.37
CCOC(=O)C[C@H](O)[C@H](CC(C)C)NC(=O)[C@@H](NC(=O)[C@@H](NC(=O)CC(C)C)C(C)C)C(C)C (Isovaleryl-Val-Val-[Sta]-OEt) | 6.74
